From ChEMBL document CHEMBL1201861, “Genomics of Drug Sensitity in Cancer screening data, Wellcome Trust Sanger Institute”

Assays:
Test in all cases: cells
Conditions in all cases: Homo sapiens
[1] = tested on: BT-474; assay type: functional, cell-based
Description: SANGER: Inhibition of human BT-474 cell growth in a cell viability assay.

[2] = tested on: D-263MG; assay type: functional, cell-based
Description: SANGER: Inhibition of human D-263MG cell growth in a cell viability assay.

[3] = tested on: LS-411N; assay type: functional, cell-based
[4] = tested on: COLO-684; assay type: functional, cell-based
Description: SANGER: Inhibition of human COLO-684 cell growth in a cell viability assay.

[5] = tested on: OVCAR-4; assay type: functional, cell-based;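 also: growth inhibition of human OVCAR-4 cells, measured with a cell viability assay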
Description: SANGER: Inhibition of human OVCAR-4 cell growth in a cell viability assay.

[6] = tested on: C2BBe1; assay type: functional, cell-based;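 also: growth inhibition of C2BBe1 cells, read out through a viability assay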
Description: SANGER: Inhibition of human C2BBe1 cell growth in a cell viability assay.

[7] = tested on: A498; assay type: functional, cell-based;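 also: growth inhibition of human A498 cells, read out with a cell viability assay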
Description: SANGER: Inhibition of human A498 cell growth in a cell viability assay.

[8] = tested on: LS-513; assay type: functional, cell-based
Description: SANGER: Inhibition of human LS-513 cell growth in a cell viability assay.

[9] = tested on: NH-12; assay type: functional, cell-based;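 also: growth inhibition of NH-12 cells, read out with a cell viability assay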
Description: SANGER: Inhibition of human NH-12 cell growth in a cell viability assay.

[10] = tested on: SW 962; assay type: functional, cell-based;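 also: growth inhibition of human SW962 cells, read out by a cell viability assay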
Description: SANGER: Inhibition of human SW962 cell growth in a cell viability assay.

[11] = tested on: NCI-H510A; assay type: functional, cell-based;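 also: growth inhibition of NCI-H510A cells, read out with a cell viability assay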
Description: SANGER: Inhibition of human NCI-H510A cell growth in a cell viability assay.

[12] = tested on: IST-MES1; assay type: functional, cell-based;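 also: growth inhibition of IST-MES1 cells, measured with a cell viability assay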
Description: SANGER: Inhibition of human IST-MES1 cell growth in a cell viability assay.

[13] = tested on: EW-3; assay type: functional, cell-based;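 also: cell viability assay read-out, IC50 reflects inhibition of growth of the EW-3 cells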
Description: SANGER: Inhibition of human EW-3 cell growth in a cell viability assay.

[14] = tested on: Lu-65; assay type: functional, cell-based;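 also: growth inhibition of Lu-65 cancer cells, read out by a cell viability assay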
Description: SANGER: Inhibition of human LU-65 cell growth in a cell viability assay.

[15] = tested on: NCI-H1650; assay type: functional, cell-based;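 also: growth inhibition of human NCI-H1650 cells measured by a cell viability assay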
Description: SANGER: Inhibition of human NCI-H1650 cell growth in a cell viability assay.

[16] = tested on: DSH1; assay type: functional, cell-based;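 also: growth inhibition of human DSH1 cells, measured with a cell viability readout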
Description: SANGER: Inhibition of human DSH1 cell growth in a cell viability assay.

[17] = tested on: NKM-1; assay type: functional, cell-based;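 also: growth inhibition of NKM-1 cells, read out with a cell viability assay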
Description: SANGER: Inhibition of human NKM-1 cell growth in a cell viability assay.

[18] = tested on: LB373-MEL-D; assay type: functional, cell-based;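 also: growth inhibition of the cell line, read out in a cell viability assay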
Description: SANGER: Inhibition of human LB373-MEL-D cell growth in a cell viability assay.

[19] = tested on: MSTO-211H; assay type: functional, cell-based
Description: SANGER: Inhibition of human MSTO-211H cell growth in a cell viability assay.

[20] = tested on: GI-ME-N; assay type: functional, cell-based;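 also: growth inhibition of human GI-ME-N cells, read out with a cell viability assay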
Description: SANGER: Inhibition of human GI-ME-N cell growth in a cell viability assay.

[21] = tested on: BV-173; assay type: functional, cell-based
Description: SANGER: Inhibition of human BV-173 cell growth in a cell viability assay.

[22] = tested on: JAR; assay type: functional, cell-based;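 also: growth inhibition of human JAR cells determined with a cell viability assay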
Description: SANGER: Inhibition of human JAR cell growth in a cell viability assay.

[23] = tested on: NCI-H1092; assay type: functional, cell-based;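 also: cell growth inhibition measured with a cell viability assay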
Description: SANGER: Inhibition of human NCI-H1092 cell growth in a cell viability assay.

[24] = tested on: MHH-NB-11; assay type: functional, cell-based;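 also: growth inhibition of human MHH-NB-11 cells, read out by a cell viability assay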
Description: SANGER: Inhibition of human MHH-NB-11 cell growth in a cell viability assay.

[25] = tested on: ALL-PO; assay type: functional, cell-based;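 also: growth inhibition of ALL-PO cells, read out by a cell viability assay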
Description: SANGER: Inhibition of human ALL-PO cell growth in a cell viability assay.

[26] = tested on: TE-1; assay type: functional, cell-based;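 also: growth inhibition of the human TE-1 cell line, read out with a cell viability assay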
Description: SANGER: Inhibition of human TE-1 cell growth in a cell viability assay.

[27] = tested on: MPP-89; assay type: functional, cell-based;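 also: growth inhibition of human MPP-89 cells, read out with a cell viability assay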
Description: SANGER: Inhibition of human MPP-89 cell growth in a cell viability assay.

[28] = tested on: CP66-MEL; assay type: functional, cell-based;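 also: growth inhibition of CP66-MEL cells determined in a cell viability assay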
Description: SANGER: Inhibition of human CP66-MEL cell growth in a cell viability assay.

[29] = tested on: HAL-01; assay type: functional, cell-based;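 also: growth inhibition of human HAL-01 cells, read out with a cell viability assay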
Description: SANGER: Inhibition of human HAL-01 cell growth in a cell viability assay.

[30] = tested on: KY821; assay type: functional, cell-based;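 also: growth inhibition of human KY821 cells, read out by a cell viability assay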
Description: SANGER: Inhibition of human KY821 cell growth in a cell viability assay.

[31] = tested on: KE-37; assay type: functional, cell-based;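 also: growth inhibition of KE-37 cells, read out with a cell viability assay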
Description: SANGER: Inhibition of human KE-37 cell growth in a cell viability assay.

[32] = tested on: HL-60; assay type: functional, cell-based;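 also: growth inhibition of human HL-60 cells, read out with a cell viability assay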
Description: SANGER: Inhibition of human HL-60 cell growth in a cell viability assay.

[33] = tested on: LB831-BLC; assay type: functional, cell-based;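 also: growth inhibition of LB831-BLC cells, read out with a cell viability assay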
Description: SANGER: Inhibition of human LB831-BLC cell growth in a cell viability assay.

[34] = tested on: OCUB-M; assay type: functional, cell-based;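 also: growth inhibition of the cancer cell line, read out through a cell viability assay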
Description: SANGER: Inhibition of human OCUB-M cell growth in a cell viability assay.

[35] = tested on: COR-L88; assay type: functional, cell-based;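 also: growth inhibition of COR-L88 cells, read out with a cell viability assay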
Description: SANGER: Inhibition of human COR-L88 cell growth in a cell viability assay.

[36] = tested on: Mo; assay type: functional, cell-based
Description: SANGER: Inhibition of human Mo-T cell growth in a cell viability assay.

[37] = tested on: NCI-H1355; assay type: functional, cell-based;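 also: growth inhibition of human NCI-H1355 cells, read out by a cell viability assay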
Description: SANGER: Inhibition of human NCI-H1355 cell growth in a cell viability assay.

[38] = tested on: LB771-HNC; assay type: functional, cell-based;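 also: growth inhibition of LB771-HNC human cells, read out with a cell viability assay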
Description: SANGER: Inhibition of human LB771-HNC cell growth in a cell viability assay.

[39] = tested on: TGBC24TKB; assay type: functional, cell-based;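 also: growth inhibition of human TGBC24TKB cells, read out with a cell viability assay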
Description: SANGER: Inhibition of human TGBC24TKB cell growth in a cell viability assay.

[40] = tested on: NCI-H526; assay type: functional, cell-based;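 also: growth inhibition of the human NCI-H526 cell line, measured by a cell viability assay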
Description: SANGER: Inhibition of human NCI-H526 cell growth in a cell viability assay.

[41] = tested on: EW-18; assay type: functional, cell-based;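 also: growth inhibition of EW-18 cells, read out by a cell viability assay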
Description: SANGER: Inhibition of human EW-18 cell growth in a cell viability assay.

[42] = tested on: BB49-HNC; assay type: functional, cell-based;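 also: cell viability assay read-out, reported as inhibition of BB49-HNC cell growth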
Description: SANGER: Inhibition of human BB49-HNC cell growth in a cell viability assay.

[43] = tested on: EKVX; assay type: functional, cell-based;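 also: growth inhibition of human EKVX cells, read out with a cell viability assay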
Description: SANGER: Inhibition of human EKVX cell growth in a cell viability assay.

[44] = tested on: HuTu80; assay type: functional, cell-based, HUTU-80;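 also: growth inhibition of HuTu80 human cells, determined with a cell viability readout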
Description: SANGER: Inhibition of human HUTU-80 cell growth in a cell viability assay.

[45] = tested on: NB10; assay type: functional, cell-based;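 also: growth inhibition of NB10 cells, read out by a cell viability assay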
Description: SANGER: Inhibition of human NB10 cell growth in a cell viability assay.

[46] = tested on: L-428; assay type: functional, cell-based
Description: SANGER: Inhibition of human L-428 cell growth in a cell viability assay.

[47] = tested on: EW-11; assay type: functional, cell-based;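 also: growth inhibition of human EW-11 cells, measured with a cell viability assay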
Description: SANGER: Inhibition of human EW-11 cell growth in a cell viability assay.

[48] = tested on: COLO-668; assay type: functional, cell-based
Description: SANGER: Inhibition of human COLO-668 cell growth in a cell viability assay.

[49] = tested on: COLO-829; assay type: functional, cell-based
Description: SANGER: Inhibition of human COLO-829 cell growth in a cell viability assay.

[50] = tested on: KARPAS-299; assay type: functional, cell-based
Description: SANGER: Inhibition of human KARPAS-299 cell growth in a cell viability assay.

[51] = tested on: D283 Med; assay type: functional, cell-based
Description: SANGER: Inhibition of human D-283MED cell growth in a cell viability assay.

[52] = tested on: CW-2; assay type: functional, cell-based;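 also: growth inhibition of CW-2 cells, read out by a cell viability assay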
Description: SANGER: Inhibition of human CW-2 cell growth in a cell viability assay.

[53] = tested on: COLO-800; assay type: functional, cell-based;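 also: growth inhibition of COLO-800 cells, read out with a cell viability assay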
Description: SANGER: Inhibition of human COLO-800 cell growth in a cell viability assay.

[54] = tested on: BB30-HNC; assay type: functional, cell-based;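 also: growth inhibition of the cultured cell line, read out by a cell viability assay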
Description: SANGER: Inhibition of human BB30-HNC cell growth in a cell viability assay.

[55] = tested on: LXF-289 cell line; assay type: functional, cell-based
Description: SANGER: Inhibition of human LXF-289 cell growth in a cell viability assay.

[56] = tested on: LU-134-A; assay type: functional, cell-based
Description: SANGER: Inhibition of human LU-134-A cell growth in a cell viability assay.

[57] = tested on: TE-8; assay type: functional, cell-based;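 also: growth inhibition of TE-8 cells, measured with a cell viability readout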
Description: SANGER: Inhibition of human TE-8 cell growth in a cell viability assay.

[58] = tested on: RH-1; assay type: functional, cell-based;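 also: growth inhibition of human RH-1 cells, read out with a cell viability assay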
Description: SANGER: Inhibition of human RH-1 cell growth in a cell viability assay.

[59] = tested on: SW684; assay type: functional, cell-based;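 also: growth inhibition of human SW684 cells, measured by a cell viability assay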
Description: SANGER: Inhibition of human SW684 cell growth in a cell viability assay.

[60] = tested on: SHP77; assay type: functional, cell-based, SHP-77;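 also: growth inhibition of human SHP-77 cells measured by a cell viability assay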
Description: SANGER: Inhibition of human SHP-77 cell growth in a cell viability assay.

[61] = tested on: LNCaP-Clone-FGC; assay type: functional, cell-based
Description: SANGER: Inhibition of human LNCaP-Clone-FGC cell growth in a cell viability assay.

[62] = tested on: NB6; assay type: functional, cell-based;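 also: growth inhibition of NB6 cells, read out by a cell viability assay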
Description: SANGER: Inhibition of human NB6 cell growth in a cell viability assay.

[63] = tested on: LB1047-RCC; assay type: functional, cell-based;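 also: inhibition of cell growth, determined with a cell viability assay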
Description: SANGER: Inhibition of human LB1047-RCC cell growth in a cell viability assay.

[64] = tested on: COLO-320-HSR; assay type: functional, cell-based;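 also: growth inhibition of COLO-320-HSR cells, determined with a cell viability assay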
Description: SANGER: Inhibition of human COLO-320-HSR cell growth in a cell viability assay.

[65] = tested on: SK-UT-1; assay type: functional, cell-based;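 also: growth inhibition of SK-UT-1 cells, measured by a cell viability assay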
Description: SANGER: Inhibition of human SK-UT-1 cell growth in a cell viability assay.

For `Cc1nc(Nc2ncc(C(=O)Nc3c(C)cccc3Cl)s2)cc(N2CCN(CCO)CC2)n1` [DASATINIB], the IC50 [1] was greater than 1280 nM, the IC50 [2] was 362 nM and the IC50 [3] was greater than 1280 nM. The IC50 [4] was greater than 1280 nM, the IC50 [5] was 374 nM and the IC50 [6] was 83.1 nM. The IC50 [7] was 72.8 nM, the IC50 [8] was greater than 1280 nM and the IC50 [9] was greater than 1280 nM. For the same compound, the IC50 [10] was 113 nM, the IC50 [11] was greater than 1280 nM and the IC50 [12] was 85.5 nM. For the same compound, the IC50 [13] was greater than 1280 nM, the IC50 [14] was greater than 1280 nM and the IC50 [15] was greater than 1280 nM. The IC50 [16] was 240 nM, the IC50 [17] was greater than 1280 nM and the IC50 [18] was 825 nM. The IC50 [19] was greater than 1280 nM, the IC50 [20] was 61.2 nM and the IC50 [21] was less than 5 nM. It also gave an IC50 [22] greater than 1280 nM, an IC50 [23] greater than 1280 nM and an IC50 [24] greater than 1280 nM. It also gave an IC50 [25] greater than 1280 nM, an IC50 [26] of 105 nM and an IC50 [27] of 40.5 nM. For the same compound, the IC50 [28] was 195 nM, the IC50 [29] was greater than 1280 nM and the IC50 [30] was greater than 1280 nM. For the same compound, the IC50 [31] was greater than 1280 nM, the IC50 [32] was greater than 1280 nM and the IC50 [33] was 46.1 nM. The IC50 [34] was 1040 nM, the IC50 [35] was greater than 1280 nM and the IC50 [36] was greater than 1280 nM. The IC50 [37] was 110 nM, the IC50 [38] was greater than 1280 nM and the IC50 [39] was 47.6 nM. It also gave an IC50 [40] greater than 1280 nM, an IC50 [41] greater than 1280 nM and an IC50 [42] of 386 nM. It also gave an IC50 [43] greater than 1280 nM, an IC50 [44] of 314 nM and an IC50 [45] greater than 1280 nM. The IC50 [46] was greater than 1280 nM, the IC50 [47] was greater than 1280 nM and the IC50 [48] was greater than 1280 nM. For the same compound, the IC50 [49] was 122 nM, the IC50 [50] was greater than 1280 nM and the IC50 [51] was greater than 1280 nM. The IC50 [52] was greater than 1280 nM, the IC50 [53] was greater than 1280 nM and the IC50 [54] was 54.4 nM. The IC50 [55] was 39.6 nM, the IC50 [56] was greater than 1280 nM and the IC50 [57] was 15.8 nM. For the same compound, the IC50 [58] was greater than 1280 nM, the IC50 [59] was 350 nM and the IC50 [60] was greater than 1280 nM. For the same compound, the IC50 [61] was greater than 1280 nM, the IC50 [62] was greater than 1280 nM and the IC50 [63] was 9.89 nM. The IC50 [64] was greater than 1280 nM and the IC50 [65] was greater than 1280 nM.
Compound `C[C@]12O[C@H](C[C@]1(O)CO)n1c3ccccc3c3c4c(c5c6ccccc6n2c5c31)CNC4=O` [LESTAURTINIB] has an IC50 [1] greater than 2000 nM, an IC50 [2] of 971 nM and an IC50 [3] of 322 nM. The IC50 [4] was 853 nM, the IC50 [5] was greater than 2000 nM and the IC50 [6] was 361 nM. For the same compound, the IC50 [7] was 221 nM, the IC50 [8] was 1250 nM and the IC50 [9] was 199 nM. It also gave an IC50 [10] of 154 nM, an IC50 [11] of 513 nM and an IC50 [12] greater than 2000 nM. It also gave an IC50 [13] of 125 nM, an IC50 [14] greater than 2000 nM and an IC50 [15] greater than 2000 nM. It also gave an IC50 [16] of 992 nM, an IC50 [17] of 47.3 nM and an IC50 [18] greater than 2000 nM. The IC50 [19] was 439 nM, the IC50 [20] was 174 nM and the IC50 [21] was 369 nM. The IC50 [22] was 9.94 nM, the IC50 [23] was greater than 2000 nM and the IC50 [24] was 1110 nM. The IC50 [25] was 172 nM, the IC50 [26] was 553 nM and the IC50 [27] was 1040 nM. It also gave an IC50 [28] greater than 2000 nM, an IC50 [29] of 306 nM and an IC50 [30] of 159 nM. For the same compound, the IC50 [31] was 16.8 nM, the IC50 [32] was 149 nM and the IC50 [33] was greater than 2000 nM. For the same compound, the IC50 [34] was greater than 2000 nM, the IC50 [35] was greater than 2000 nM and the IC50 [36] was greater than 2000 nM. It also gave an IC50 [37] greater than 2000 nM, an IC50 [38] greater than 2000 nM and an IC50 [39] greater than 2000 nM. For the same compound, the IC50 [40] was greater than 2000 nM, the IC50 [41] was 635 nM and the IC50 [42] was 1640 nM. The IC50 [43] was 606 nM, the IC50 [44] was 649 nM and the IC50 [45] was 338 nM. For the same compound, the IC50 [46] was greater than 2000 nM, the IC50 [47] was 132 nM and the IC50 [48] was greater than 2000 nM. For the same compound, the IC50 [49] was 1160 nM, the IC50 [50] was greater than 2000 nM and the IC50 [51] was 132 nM. It also gave an IC50 [52] greater than 2000 nM, an IC50 [53] of 190 nM and an IC50 [54] of 935 nM. For the same compound, the IC50 [55] was 1020 nM, the IC50 [56] was 600 nM and the IC50 [57] was 667 nM. It also gave an IC50 [58] of 149 nM, an IC50 [59] of 1920 nM and an IC50 [60] greater than 2000 nM. The IC50 [61] was 353 nM, the IC50 [62] was 936 nM and the IC50 [63] was 76.9 nM. For the same compound, the IC50 [64] was greater than 2000 nM and the IC50 [65] was 354 nM.
